Measured values taken from US20240360134A1, “PYRAZOLOPYRIMIDINES AND THEIR USES AS PDGFR INHIBITORS” (priority 2021, published 2024).

Assays:
[1] = biological target: Tb-labeled inactive PDGFRβ (Homo sapiens (Human), UniProt P09619); assay: biochemical; type: binding; conditions: read-out: PDGFR Lantha IC50
[2] = biological target: His6-TEV-PDGFRβ (557-1016) (Homo sapiens (Human), UniProt P09619); assay: PDGFRβ HTRF Assay; type: biochemical; conditions: 800 μM ATP, 0.5 μM TK-substrate biotin peptide, 30 min pre-incubation, 3 hours reaction; read-out: PDGFR HTRF IC50
His6-TEV-PDGFRβ (557-1016), sequence (P09619 whole entry, looked up): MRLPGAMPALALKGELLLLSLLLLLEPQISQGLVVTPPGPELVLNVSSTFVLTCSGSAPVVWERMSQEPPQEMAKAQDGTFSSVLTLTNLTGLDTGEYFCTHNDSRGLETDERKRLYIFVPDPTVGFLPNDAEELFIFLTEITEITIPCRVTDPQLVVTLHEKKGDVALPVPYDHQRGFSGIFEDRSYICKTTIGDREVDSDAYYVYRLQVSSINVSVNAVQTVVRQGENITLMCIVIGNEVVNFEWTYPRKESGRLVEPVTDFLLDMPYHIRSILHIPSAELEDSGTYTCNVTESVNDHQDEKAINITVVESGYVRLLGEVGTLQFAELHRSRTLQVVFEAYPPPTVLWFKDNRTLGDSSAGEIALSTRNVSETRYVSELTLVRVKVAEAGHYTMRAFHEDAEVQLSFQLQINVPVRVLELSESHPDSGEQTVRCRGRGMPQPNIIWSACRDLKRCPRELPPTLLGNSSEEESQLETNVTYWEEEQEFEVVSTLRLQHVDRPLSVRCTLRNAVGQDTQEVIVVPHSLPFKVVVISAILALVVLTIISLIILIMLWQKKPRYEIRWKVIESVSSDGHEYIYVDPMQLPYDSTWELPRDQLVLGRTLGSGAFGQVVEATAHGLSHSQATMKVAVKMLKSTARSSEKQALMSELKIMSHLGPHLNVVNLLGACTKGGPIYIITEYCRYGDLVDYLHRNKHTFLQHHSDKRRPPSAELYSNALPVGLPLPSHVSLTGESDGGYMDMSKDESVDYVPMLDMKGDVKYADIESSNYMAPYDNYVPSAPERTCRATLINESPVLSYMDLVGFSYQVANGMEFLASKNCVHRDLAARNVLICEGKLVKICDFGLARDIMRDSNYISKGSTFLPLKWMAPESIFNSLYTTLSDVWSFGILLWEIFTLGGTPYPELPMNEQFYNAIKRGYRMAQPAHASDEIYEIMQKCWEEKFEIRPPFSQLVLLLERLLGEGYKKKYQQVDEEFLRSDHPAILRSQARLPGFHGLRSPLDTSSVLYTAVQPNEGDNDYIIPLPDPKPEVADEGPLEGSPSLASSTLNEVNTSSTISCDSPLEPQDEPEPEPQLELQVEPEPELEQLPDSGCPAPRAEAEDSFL

VEGFR2, unphosphorylated = VEGFR2, unphosphorylated (Homo sapiens (Human), UniProt P35968); assay: VEGFR ADP GLO assay; type: biochemical; conditions: 5 nM VEGFR2, 1.2 mM ATP, 1 mg/mL Srctide, 180 min
VEGFR2, unphosphorylated, sequence (P35968 whole entry, looked up): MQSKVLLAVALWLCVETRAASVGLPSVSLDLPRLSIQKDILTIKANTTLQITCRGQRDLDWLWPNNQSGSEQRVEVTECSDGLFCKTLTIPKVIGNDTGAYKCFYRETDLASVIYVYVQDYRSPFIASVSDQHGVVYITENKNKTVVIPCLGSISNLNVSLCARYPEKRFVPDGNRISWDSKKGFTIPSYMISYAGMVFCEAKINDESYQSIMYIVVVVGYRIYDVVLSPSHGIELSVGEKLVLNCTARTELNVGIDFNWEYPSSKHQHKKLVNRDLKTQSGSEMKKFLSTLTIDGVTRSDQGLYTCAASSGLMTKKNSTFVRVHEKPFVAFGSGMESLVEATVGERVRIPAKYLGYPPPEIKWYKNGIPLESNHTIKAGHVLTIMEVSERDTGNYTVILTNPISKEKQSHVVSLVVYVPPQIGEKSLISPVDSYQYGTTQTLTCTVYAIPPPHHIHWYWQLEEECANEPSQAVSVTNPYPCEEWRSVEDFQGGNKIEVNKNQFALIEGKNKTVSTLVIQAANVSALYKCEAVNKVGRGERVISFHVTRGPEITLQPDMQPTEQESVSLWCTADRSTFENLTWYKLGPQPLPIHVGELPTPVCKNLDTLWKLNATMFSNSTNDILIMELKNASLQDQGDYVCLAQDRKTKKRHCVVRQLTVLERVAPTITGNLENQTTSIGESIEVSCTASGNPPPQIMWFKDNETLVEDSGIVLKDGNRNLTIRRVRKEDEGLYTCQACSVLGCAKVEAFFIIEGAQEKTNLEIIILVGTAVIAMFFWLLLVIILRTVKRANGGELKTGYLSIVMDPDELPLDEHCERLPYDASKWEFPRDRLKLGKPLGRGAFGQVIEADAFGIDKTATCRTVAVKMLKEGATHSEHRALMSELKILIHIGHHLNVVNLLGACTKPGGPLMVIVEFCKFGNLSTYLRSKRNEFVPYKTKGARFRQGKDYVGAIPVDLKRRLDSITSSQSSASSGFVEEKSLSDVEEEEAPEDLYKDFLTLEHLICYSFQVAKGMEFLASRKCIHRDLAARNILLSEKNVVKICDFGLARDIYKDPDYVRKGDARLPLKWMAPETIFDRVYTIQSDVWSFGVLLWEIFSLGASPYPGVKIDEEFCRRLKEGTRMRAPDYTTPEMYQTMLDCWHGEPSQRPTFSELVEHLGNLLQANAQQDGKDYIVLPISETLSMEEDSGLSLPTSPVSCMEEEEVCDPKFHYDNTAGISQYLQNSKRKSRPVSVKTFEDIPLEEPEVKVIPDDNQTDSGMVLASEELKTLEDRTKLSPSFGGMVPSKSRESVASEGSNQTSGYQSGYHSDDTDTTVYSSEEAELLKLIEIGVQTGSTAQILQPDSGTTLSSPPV
Outline: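 Unphosphorylated kinase (10 nM 2× solution) pre-incubated 30 min at RT with compounds (11-point, 3-fold, top 10 µM), then reacted 180 min with srctide and ATP (2×: 2 mg/mL, 2.4 mM) in HEPES pH 7.5 buffer. ADP read by luminescence. IC50 from 4-parameter fit, normalized to DMSO and 1 µM TAK-593.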

PDGFRβ = PDGFRβ (Rattus norvegicus (Rat), UniProt Q05030); assay: PDGFRβ Cellular Assay (PDGFRb P-Y751 HTRF, PDGF-BB stimulated A10 cells); type: cell-based; conditions: A10 cells, 3 hours compound, 15 ng/mL PDGFbb for 10 minutes; read-out: PDGFR Cellular IC50
PDGFRβ, sequence (Q05030 whole entry, looked up): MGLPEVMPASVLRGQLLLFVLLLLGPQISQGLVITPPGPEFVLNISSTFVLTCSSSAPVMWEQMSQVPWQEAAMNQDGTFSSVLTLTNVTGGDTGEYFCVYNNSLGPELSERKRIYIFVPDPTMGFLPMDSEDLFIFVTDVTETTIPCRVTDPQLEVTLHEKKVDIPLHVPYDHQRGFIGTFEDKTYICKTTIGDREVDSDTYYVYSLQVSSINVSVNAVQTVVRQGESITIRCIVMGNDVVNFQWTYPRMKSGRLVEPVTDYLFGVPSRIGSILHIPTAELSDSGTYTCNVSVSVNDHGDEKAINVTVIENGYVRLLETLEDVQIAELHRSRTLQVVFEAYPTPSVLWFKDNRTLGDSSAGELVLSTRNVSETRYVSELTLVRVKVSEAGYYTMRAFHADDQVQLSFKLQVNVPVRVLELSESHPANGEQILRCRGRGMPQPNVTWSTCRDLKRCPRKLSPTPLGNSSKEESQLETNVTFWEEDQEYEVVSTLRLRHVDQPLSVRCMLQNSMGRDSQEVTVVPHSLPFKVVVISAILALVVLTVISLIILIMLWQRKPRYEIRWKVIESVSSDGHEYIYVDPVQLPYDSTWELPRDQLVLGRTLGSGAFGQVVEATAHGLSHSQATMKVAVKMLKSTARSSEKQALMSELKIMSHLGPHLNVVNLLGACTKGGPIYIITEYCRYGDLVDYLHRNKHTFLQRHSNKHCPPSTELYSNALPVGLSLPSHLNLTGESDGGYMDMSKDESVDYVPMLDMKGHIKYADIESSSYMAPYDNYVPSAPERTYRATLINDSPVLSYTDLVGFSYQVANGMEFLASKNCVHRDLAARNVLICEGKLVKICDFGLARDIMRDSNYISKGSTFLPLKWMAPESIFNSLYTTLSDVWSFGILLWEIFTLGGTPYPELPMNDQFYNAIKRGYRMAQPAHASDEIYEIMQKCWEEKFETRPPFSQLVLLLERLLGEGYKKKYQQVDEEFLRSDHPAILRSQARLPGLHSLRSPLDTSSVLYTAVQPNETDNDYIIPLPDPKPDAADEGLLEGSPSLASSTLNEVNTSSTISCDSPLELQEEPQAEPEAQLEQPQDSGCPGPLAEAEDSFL
Outline: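 Rat A10 cells plated overnight were treated with compound for 3 h, stimulated with rat PDGF-BB (working stock 100 ng/mL in 10% FBS medium) for 10 min, then lysed.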

Tb-labeled inactive PDGFRβ, sequence (P09619 whole entry, looked up): as the sequence (P09619 whole entry, looked up) above

| Structure (SMILES) | IC50 [1] [nM] | IC50 [2] [nM] | IC50 (VEGFR2, unphosphorylated) [nM] | IC50 (PDGFRβ) [nM] |
| --- | --- | --- | --- | --- |
| Cc1ncccc1Nc1ncc2c(Nc3cc(NC(=O)CN4CCC[C@@H]4C)cnc3C)nn(C)c2n1 [Example 145, (S)—N-(6-methyl-5-((1-methyl-6-((2-methylpyridin-3-yl)amino)-1H-pyrazolo[3,4-d]pyrimidin-3-yl)amino)pyridin-3-yl)-2-(2-methylpyrrolidin-1-yl)acetamide] | 15.3 | 1.59 | > 7500 | 8.7 |
| COCCn1cc(Nc2ncc3c(Nc4cc(NC(=O)CN5CCC56CCC6)cnc4C)nn(C)c3n2)cn1 [Example 130, N-(5-((6-((1-(2-methoxyethyl)-1H-pyrazol-4-yl)amino)-1-methyl-1H-pyrazolo[3,4-d]pyrimidin-3-yl)amino)-6-methylpyridin-3-yl)-2-(1-azaspiro[3.3]heptan-1-yl)acetamide] | 1.5 | 0.37 | > 7500 | 4.7 |
| Cc1ncc(C(=O)NCCN2CCCC2(C)C)cc1Nc1nn(C)c2nc(Nc3cncc(CC(=O)O)c3)ncc12 [Example 33, 2-(5-((3-((5-((2-(2,2-dimethylpyrrolidin-1-yl)ethyl)carbamoyl)-2-methylpyridin-3-yl)amino)-1-methyl-1H-pyrazolo[3,4-d]pyrimidin-6-yl)amino)pyridin-3-yl)acetic acid] | 8.8 | 1.21 | 2190 | > 3000 |
| Cc1ncc(NC(=O)CN2CCC[C@@H]2C)cc1Nc1nn(C)c2nc(Nc3cnn(C4COC4)c3)ncc12 [Example 144, (S)—N-(6-methyl-5-((1-methyl-6-((1-(oxetan-3-yl)-1H-pyrazol-4-yl)amino)-1H-pyrazolo[3,4-d]pyrimidin-3-yl)amino)pyridin-3-yl)-2-(2-methylpyrrolidin-1-yl)acetamide] | 2.8 | 0.35 | > 7500 | 5.1 |
| Cc1ncc(C(=O)NCCN2CCC(C)(C)C2)cc1Nc1nn(C)c2nc(Nc3cncnc3)ncc12 [Example 8, N-(2-(3,3-dimethylpyrrolidin-1-yl)ethyl)-6-methyl-5-((1-methyl-6-(pyrimidin-5-ylamino)-1H-pyrazolo[3,4-d]pyrimidin-3-yl)amino)nicotinamide] | 5.8 | 0.39 | > 7500 | 48 |
| Cc1ncc(C(=O)NCCN2CCCC2(C)C)cc1Nc1nn(C)c2nc(Nc3ccc(N4CCOCC4)nc3)ncc12 [Example 102, N-(2-(2,2-dimethylpyrrolidin-1-yl)ethyl)-6-methyl-5-((1-methyl-6-((6-morpholinopyridin-3-yl)amino)-1H-pyrazolo[3,4-d]pyrimidin-3-yl)amino)nicotinamide] | 3.8 | 0.37 | > 7500 | 7.6 |
| Cc1ncc(C(=O)NCCC2CCCCC2)cc1Nc1nn(C)c2nc(Nc3cncc(CC(=O)O)c3)ncc12 [Example 107, 2-(5-((3-((5-((2-cyclohexylethyl)carbamoyl)-2-methylpyridin-3-yl)amino)-1-methyl-1H-pyrazolo[3,4-d]pyrimidin-6-yl)amino)pyridin-3-yl)acetic acid] | 2.8 | 0.55 | 11 | > 2000 |
| Cc1ncc(NC(=O)CN2CCC[C@@H]2C)cc1Nc1nn(C)c2nc(Nc3ccnn3C)ncc12 [Example 143, (S)—N-(6-methyl-5-((1-methyl-6-((1-methyl-1H-pyrazol-5-yl)amino)-1H-pyrazolo[3,4-d]pyrimidin-3-yl)amino)pyridin-3-yl)-2-(2-methylpyrrolidin-1-yl)acetamide] | 11.7 | 1.2 | > 7500 | 7.4 |
| Cc1cc(C(=O)NCCN2CC3COCC3C2)sc1Nc1nn(C)c2nc(Nc3cnn(C)c3)ncc12 (stereo not shown) [Example 61, 4-methyl-5-((1-methyl-6-((1-methyl-1H-pyrazol-4-yl)amino) 1H-pyrazolo[3,4-d]pyrimidin-3-yl)amino)-N-(2-(tetrahydro-1H-furo[3,4-c]pyrrol-5(3H)-yl)ethyl)thiophene-2-carboxamide] | 10.2 | 0.61 | 3860 | 86.8 |
| Cc1ncc(C(=O)NCCN(C)C2CCCC2)cc1Nc1nn(C)c2nc(Nc3cncnc3)ncc12 [Example 9, N-(2-(cyclopentyl(methyl)amino)ethyl)-6-methyl-5-((1-methyl-6-(pyrimidin-5-ylamino)-1H-pyrazolo[3,4-d]pyrimidin-3-yl)amino)nicotinamide] | 7 | 0.59 | > 7500 | 36.5 |
| Cc1ncc(C(=O)NCCN2CCOCC23CC3)cc1Nc1nn(C)c2nc(Nc3cncnc3)ncc12 [Example 13, N-(2-(7-oxa-4-azaspiro[2.5]octan-4-yl)ethyl)-6-methyl-5-((1-methyl-6-(pyrimidin-5-ylamino)-1H-pyrazolo[3,4-d]pyrimidin-3-yl)amino)nicotinamide] | 12.8 | 1.55 | > 7500 | 152 |
| Cc1cc(C(=O)NCCN2CCCOCC2)sc1Nc1nn(C)c2nc(Nc3cnn(C)c3)ncc12 [Example 62, N-(2-(1,4-oxazepan-4-yl)ethyl)-4-methyl-5-((1-methyl-6-((1-methyl-1H-pyrazol-4-yl)amino)-1H-pyrazolo[3,4-d]pyrimidin-3-yl)amino)thiophene-2-carboxamide] | 12.1 | 0.83 | > 7500 | 64.7 |
| Cc1ncc(NC(=O)NCCN2CCCC2(C)C)cc1Nc1nn(C)c2nc(Nc3cncnc3)ncc12 [Example 16, 1-(2-(2,2-dimethylpyrrolidin-1-yl)ethyl)-3-(6-methyl-5-((1-methyl-6-(pyrimidin-5-ylamino)-1H-pyrazolo[3,4-d]pyrimidin-3-yl)amino)pyridin-3-yl)urea] | 18.5 | 1.36 | > 7500 | 1480 |
| Cc1nn(C)cc1Nc1ncc2c(Nc3cc(C(=O)NCCN4CCC5(CC5)C4)cnc3C)nn(C)c2n1 [Example 154, N-(2-(5-azaspiro[2.4]heptan-5-yl)ethyl)-5-((6-((1,3-dimethyl-1H-pyrazol-4-yl)amino)-1-methyl-1H-pyrazolo[3,4-d]pyrimidin-3-yl)amino)-6-methylnicotinamide] | 12 | 1.41 | > 7500 | 120 |
| Cc1ncc(C(=O)NCCN(C(C)C)C(C)C)cc1Nc1nn(C)c2nc(Nc3cncnc3)ncc12 [Example 15, N-(2-(diisopropylamino)ethyl)-6-methyl-5-((1-methyl-6-(pyrimidin-5-ylamino)-1H-pyrazolo[3,4-d]pyrimidin-3-yl)amino)nicotinamide] | 9.9 | 1.01 | > 7500 | 33.2 |
| Cc1ncc(C(=O)NCCC2CCCCC2)cc1Nc1nn(C)c2nc(Nc3ccc(CC#N)nc3)ncc12 [Example 105, 5-((6-((6-(cyanomethyl)pyridin-3-yl)amino)-1-methyl-1H-pyrazolo[3,4-d]pyrimidin-3-yl)amino)-N-(2-cyclohexylethyl)-6-methylnicotinamide] | 2.7 | 0.59 | 3360 | 9.7 |
